We go through 33 molecules from patent US10392373B2, “Oxazole derivatives that inhibit Syk” (AB Science, priority 2015, dated 2019).

SMILES strings stand for the structures. pIC50: −log10 of the molar value. Where only a bound is given, the exact number is not on record here.

The assay has as its target T1, SYK kinase (Homo sapiens, UniProt P43405).
T1 construct: SYK kinase was purified as a full length protein in a baculovirus system near homogeneity; made in house
Nature of the assay: In vitro Syk inhibition assay (Kinase TK HTRF, Cisbio). Format: biochemical. As to conditions: full length SYK purified from a baculovirus system; ATP at least twice the Km; room temperature; average of triplicate; read-out: IC50: Concentration inhibiting 50% of protein kinase. Here is the method:
Protocol Inhibition Assays.
SYK kinase was purified as a full length protein in a baculovirus system near homogeneity. All kinase assays were performed with the Kinase TK (tyrosine kinase) HTRF (Homogeneous Time Resolved Fluorescence) assay developed by Cisbio international. These assays were carried out at room temperature in 96-wells half-area white plates in a final volume of 25 μl of kinase buffer (10 mM MgCl2; 2 mM MnCl2; 50 mM Sodium-HEPES pH 7.8; BRIJ-35 0.01%, 1 μM substrate) containing ATP at a concentration of at least twice the Km for each enzyme and an appropriate amount of recombinant enzyme to ensure a linear reaction rate. Reactions were initiated upon introduction of the enzyme and terminated with the addition of one reaction volume (25 μl) of HTRF detection buffer. Plates were incubated for one hour at room temperature and the time resolved Fluorescence resonance energy transfer signal was measured in a Pherastar FS microplate reader (BMG Labtech). All data are the average of triplicate results with a standard deviation <10%.
(In general: TR-FRET usually uses a lanthanide donor and a delayed reading to cut background.)
On to `Cc1ccnc(Nc2cccc(-c3cnc(N4CCNC(=O)C4C)o3)c2)n1` (stereo not drawn) [Compound 001, 3-Methyl-4-{5-[3-(4-methyl-pyrimidin-2-ylamino)-phenyl]-oxazol-2-yl}-piperazin-2-one], for which the pIC50 was at least 7.00. In the case of `CC(C)C1C(=O)NCCN1c1ncc(-c2cccc(Nc3nccc(N4CCN(C)CC4)n3)c2)o1` (stereo not drawn) [Compound 035, 3-Isopropyl-4-(5-{3-[4-(4-methyl-piperazin-1-yl)-pyrimidin-2-ylamino]-phenyl}-oxazol-2-yl)-piperazin-2-one], the pIC50 was 5.00 to 6.00. Take `Cc1ccnc(Nc2cc(CN(C)C)cc(-c3cnc(N4CCNC(=O)C4(C)C)o3)c2)n1` [Compound 044, 4-{5-[3-Dimethylaminomethyl-5-(4-methyl-pyrimidin-2-ylamino)-phenyl]-oxazol-2-yl}-3,3-dimethyl-piperazin-2-one]: the pIC50 is 6.00 to 7.00. As for `CC(C)c1ccnc(Nc2cccc(-c3cnc(N4CCNC(=O)C4(C)C)o3)c2)n1` [Compound 023, 4-{5-[3-(4-Isopropyl-pyrimidin-2-ylamino)-phenyl]-oxazol-2-yl}-3,3-dimethyl-piperazin-2-one], the pIC50 was at least 7.00. In the case of `Cc1ccnc(Nc2cccc(-c3cnc(N4CCNC(=O)[C@@H]4C(C)C)o3)c2)n1` [Compound 039, (S)-3-Isopropyl-4-{5-[3-(4-methyl-pyrimidin-2-ylamino)-phenyl]-oxazol-2-yl}-piperazin-2-one], the pIC50 was 6.00 to 7.00. With `CCCc1cnc(Nc2cccc(-c3cnc(N4CCNC(=O)C4C)o3)c2)nc1` (stereo not drawn) [Compound 006, 3-Methyl-4-{5-[3-(5-propyl-pyrimidin-2-ylamino)-phenyl]-oxazol-2-yl}-piperazin-2-one], the pIC50 is 5.00 to 6.00. The value for `Cc1ccnc(Nc2cccc(-c3cnc(N4CCNC(=O)C4CCO)o3)c2)n1` (stereo not drawn) [Compound 024, 3-(2-Hydroxy-ethyl)-4-{5-[3-(4-methyl-pyrimidin-2-ylamino)-phenyl]-oxazol-2-yl}-piperazin-2-one] was 6.00 to 7.00; that for `Cc1ccnc(Nc2cc(CN3CCOCC3)cc(-c3cnc(N4CCNC(=O)C4C)o3)c2)n1` (stereo not drawn) [Compound 014, 3-Methyl-4-{5-[3-(4-methyl-pyrimidin-2-ylamino)-5-morpholin-4-ylmethyl-phenyl]-oxazol-2-yl}-piperazin-2-one] was 6.00 to 7.00; that for `CC1C(=O)NCCN1c1ncc(-c2cccc(Nc3nccc(C#N)n3)c2)o1` (stereo not drawn) [Compound 017, 2-{3-[2-(2-Methyl-3-oxo-piperazin-1-yl)-oxazol-5-yl]-phenylamino}-pyrimidine-4-carbonitrile] was at least 7.00.

On to `CCC1C(=O)NCCN1c1ncc(-c2cccc(Nc3nccc(C(C)C)n3)c2)o1` (stereo not drawn) [Compound 025, 3-Ethyl-4-{5-[3-(4-isopropyl-pyrimidin-2-ylamino)-phenyl]-oxazol-2-yl}-piperazin-2-one], for which the pIC50 was at least 7.00. `Cc1ccnc(Nc2cccc(-c3cnc(N4CCNC(=O)[C@@H]4C)o3)c2)n1` [Compound 019, (S)-3-Methyl-4-{5-[3-(4-methyl-pyrimidin-2-ylamino)-phenyl]-oxazol-2-yl}-piperazin-2-one]: the pIC50 is at least 7.00. For `CC1C(=O)NCCN1c1ncc(-c2cc(CN3CCOCC3)cc(Nc3nccc(C(F)(F)F)n3)c2)o1` (stereo not drawn) [Compound 015, 3-Methyl-4-{5-[3-morpholin-4-ylmethyl-5-((4-trifluoromethyl)-pyrimidin-2-ylamino)-phenyl]-oxazol-2-yl}-piperazin-2-one], the pIC50 is at least 7.00. As to `CN1CCN(c2ccnc(Nc3cccc(-c4cnc(N5CCNC(=O)C5(C)C)o4)c3)n2)CC1` [Compound 031, 3,3-Dimethyl-4-(5-{3-[4-(4-methyl-piperazin-1-yl)-pyrimidin-2-ylamino]-phenyl}-oxazol-2-yl)-piperazin-2-one], the pIC50 was 5.00 to 6.00. Regarding `CC1C(=O)NCCN1c1ncc(-c2cccc(Nc3nccc(C4CC4)n3)c2)o1` (stereo not drawn) [Compound 041, 4-{5-[3-(4-Cyclopropyl-pyrimidin-2-ylamino)-phenyl]-oxazol-2-yl}-3-methyl-piperazin-2-one], the pIC50 was at least 7.00. On to `Cc1ccnc(Nc2cccc(-c3cnc(N4CCNC(=O)C4C(C)C)o3)c2)n1` (stereo not drawn) [Compound 003, 3-Isopropyl-4-{5-[3-(4-methyl-pyrimidin-2-ylamino)-phenyl]-oxazol-2-yl}-piperazin-2-one], for which the pIC50 was at least 7.00. Take `CC(C)C1C(=O)NCCN1c1ncc(-c2cccc(Nc3nccc(C4CC4)n3)c2)o1` (stereo not drawn) [Compound 043, 4-{5-[3-(4-Cyclopropyl-pyrimidin-2-ylamino)-phenyl]-oxazol-2-yl}-3-isopropyl-piperazin-2-one]: the pIC50 was at least 7.00. The value for `CC(C)C1C(=O)NCCN1c1ncc(-c2cccc(Nc3nccc(N4CCOCC4)n3)c2)o1` (stereo not drawn) [Compound 033, 3-Isopropyl-4-{5-[3-(4-morpholin-4-yl-pyrimidin-2-ylamino)-phenyl]-oxazol-2-yl}-piperazin-2-one] was 5.00 to 6.00; that for `Cc1cnc(Nc2cccc(-c3cnc(N4CCNC(=O)C4(C)C)o3)c2)nc1C` [Compound 022, 4-{5-[3-(4,5-Dimethyl-pyrimidin-2-ylamino)-phenyl]-oxazol-2-yl}-3,3-dimethyl-piperazin-2-one] was 5.00 to 6.00; that for `Cc1ccnc(Nc2cccc(-c3cnc(N4CCNC(=O)[C@H]4C)o3)c2)n1` [Compound 007, (R)-3-Methyl-4-{5-[3-(4-methyl-pyrimidin-2-ylamino)-phenyl]-oxazol-2-yl}-piperazin-2-one] was at least 7.00. Turning to `CC1(C)C(=O)NCCN1c1ncc(-c2cccc(Nc3nccc(C(F)(F)F)n3)c2)o1` [Compound 018, 3,3-Dimethyl-4-{5-[3-((4-trifluoromethyl)-pyrimidin-2-ylamino)-phenyl]-oxazol-2-yl}-piperazin-2-one], the pIC50 is at least 7.00.

As for `COc1ccnc(Nc2cccc(-c3cnc(N4CCNC(=O)C4C)o3)c2)n1` (stereo not drawn) [Compound 013, 4-{5-[3-(4-Methoxy-pyrimidin-2-ylamino)-phenyl]-oxazol-2-yl}-3-methyl-piperazin-2-one], the pIC50 is at least 7.00. To `CC1C(=O)NCCN1c1ncc(-c2cccc(Nc3nccc(-c4cccs4)n3)c2)o1` (stereo not drawn) [Compound 010, 3-Methyl-4-{5-[3-(4-thiophen-2-yl-pyrimidin-2-ylamino)-phenyl]-oxazol-2-yl}-piperazin-2-one] belongs at least 7.00; to `CC1(C)C(=O)NCCN1c1ncc(-c2cccc(Nc3nccc(N4CCCC4)n3)c2)o1` [Compound 032, 3,3-Dimethyl-4-{5-[3-(4-pyrrolidin-1-yl-pyrimidin-2-ylamino)-phenyl]-oxazol-2-yl}-piperazin-2-one], 5.00 to 6.00. Take `COc1ccnc(Nc2cccc(-c3cnc(N4CCNC(=O)C4(C)C)o3)c2)n1` [Compound 026, 4-{5-[3-(4-Methoxy-pyrimidin-2-ylamino)-phenyl]-oxazol-2-yl}-3,3-dimethyl-piperazin-2-one]: the pIC50 is at least 7.00. With `CCc1cnc(Nc2cccc(-c3cnc(N4CCNC(=O)C4C)o3)c2)nc1` (stereo not drawn) [Compound 016, 4-{5-[3-(5-Ethyl-pyrimidin-2-ylamino)-phenyl]-oxazol-2-yl}-3-methyl-piperazin-2-one], the pIC50 was 5.00 to 6.00.

For `CC(C)c1ccnc(Nc2cccc(-c3cnc(N4CCNC(=O)C4C(C)C)o3)c2)n1` (stereo not drawn) [Compound 036, 3-Isopropyl-4-{5-[3-(4-isopropyl-pyrimidin-2-ylamino)-phenyl]-oxazol-2-yl}-piperazin-2-one], the pIC50 is at least 7.00. The value for `CC1(C)C(=O)NCCN1c1ncc(-c2cccc(Nc3nccc(C4CC4)n3)c2)o1` [Compound 042, 4-{5-[3-(4-Cyclopropyl-pyrimidin-2-ylamino)-phenyl]-oxazol-2-yl}-3,3-dimethyl-piperazin-2-one] was at least 7.00; that for `Cc1ccnc(Nc2cccc(-c3cnc(N4CCNC(=O)C4(C)C)o3)c2)n1` [Compound 002, 3,3-Dimethyl-4-{5-[3-(4-methyl-pyrimidin-2-ylamino)-phenyl]-oxazol-2-yl}-piperazin-2-one] was at least 7.00; that for `CC1C(=O)NCCN1c1ncc(-c2cccc(Nc3nccc(N4CCN(C)CC4)n3)c2)o1` (stereo not drawn) [Compound 029, 3-Methyl-4-(5-{3-[4-(4-methyl-piperazin-1-yl)-pyrimidin-2-ylamino]-phenyl}-oxazol-2-yl)-piperazin-2-one] was 5.00 to 6.00. Consider `CC1C(=O)NCCN1c1ncc(-c2cc(CN3CCOCC3)cc(Nc3nccc(C#N)n3)c2)o1` (stereo not drawn) [Compound 008, 2-{3-[2-(2-Methyl-3-oxo-piperazin-1-yl)-oxazol-5-yl]-5-(morpholin-4-ylmethyl)-phenylamino}-pyrimidine-4-carbonitrile], for which the pIC50 was at least 7.00.

As for `CCc1ccnc(Nc2cccc(-c3cnc(N4CCNC(=O)C4C(C)C)o3)c2)n1` (stereo not drawn) [Compound 038, 4-{5-[3-(4-Ethyl-pyrimidin-2-ylamino)-phenyl]-oxazol-2-yl}-3-isopropyl-piperazin-2-one], the pIC50 is at least 7.00. Consider `CC1C(=O)NCCN1c1ncc(-c2cccc(Nc3nccc(N4CCCC4)n3)c2)o1` (stereo not drawn) [Compound 028, 3-Methyl-4-{5-[3-(4-pyrrolidin-1-yl-pyrimidin-2-ylamino)-phenyl]-oxazol-2-yl}-piperazin-2-one], for which the pIC50 was 6.00 to 7.00.

For `CCc1ccnc(Nc2cccc(-c3cnc(N4CCNC(=O)C4C)o3)c2)n1` (stereo not drawn) [Compound 004, 4-{5-[3-(4-Ethyl-pyrimidin-2-ylamino)-phenyl]-oxazol-2-yl}-3-methyl-piperazin-2-one], the pIC50 is at least 7.00.
